Values quoted from earlier work in patent US20070003628A1, “Nanoparticulate clopidogrel formulations” (Elan Pharma International Limited, priority 2005, published 2007).
Counter-ions that a name gives are not always drawn. Like-named read-outs stand apart in the source and are kept apart here.

Legend:
[1] = not given; remark: listed apart in the source

Row | Compound | solubility in ethyl ether (ethyl ether) | solubility in methanol (methanol) | solubility in methylene chloride (methylene chloride) | solubility in water (pH 1.0) | solubility in water (water at neutral pH) | rate of a combined end point of cardiovascular death, MI, or stroke, and of cardiovascular death, MI, stroke, or refractory ischemia ([1]; patients with acute coronary syndrome) | rate of a combined end point of new ischemic stroke, new MI, and other vascular death ([1]; recent myocardial infarction, recent stroke or established arterial disease) | solubility in water (water, pH not stated)
1 | COC(=O)[C@H](c1ccccc1Cl)N1CCc2sccc2C1 [Clopidogrel bisulfate, methyl (+)-(S)-α-(2-chorophenyl)-6,7-dihydrothieno[3,2-c]pyridine-5(4H)-acetate sulfate (1:1)] | practically insoluble | dissolves freely | dissolves sparingly | freely soluble | practically insoluble | decrease the rate | reduce the rate | –
2 | COC(=O)[C@H](c1ccccc1Cl)N1CCc2sccc2C1 [clopidogrel] | – | – | – | – | – | – | – | practically insoluble
